Results on one compound are retold here after US5571820A, “Heterocyclic compound” (Taisho Pharmaceutical Co., Ltd., priority 1992, dated 1996).

For this experiment, the system named is gastric emptying. The experiment is described as follows: Activity on gastric emptying in rat (glass spheroids). It counts as in vivo, male Wistar rats. Here is the method: Experiment 4. Activity on Gastric Emptying in Rat The activity was investigated by a modification of the method described in British Journal of Pharmacology, 91, 263, 1987. Male Wistar rats weighing 170 to 220 g were used which were deprived of food for 24 hours. Glass spheroids of 500 mg/ml were orally administered to the animal in a dose of 1 ml 30 minutes after subcutaneous administration or 60 minutes after oral administration, of drugs. The glass spheroids remained in the stomach were recovered and their weight was measured to determine gastric emptying to control motility. The compound of the present invention was suspended in physiological saline and the resulting suspension was administered.

On to `CC(C)n1c(=O)c(C(=O)N[C@H]2C[C@H]3CC[C@@H](C2)N3C)cc2ccccc21` [Compound 1, endo-N-(8-methyl-8-azabicyclo[3.2.1]oct-3-yl)-1-isopropyl-2(1H)-quinolone-3-carboxamide], for which the “effect on gastric emptying” value (oral and subcutaneous) is recorded as “dose-dependently accelerated gastric emptying”. Further, the “Residual rate in stomach (%)” value is, setting by setting: (p.o. 0.03 mg/kg, 5 cases) 67.3%; (p.o. 0.3 mg/kg, 5 cases) 64.5%; (p.o. 3.0 mg/kg, 6 cases) 42.0%; (s.c. 0.1 mg/kg, 5 cases) 51.8%; (s.c. 1.0 mg/kg, 5 cases) 50.3%; (s.c. 10.0 mg/kg, 4 cases) 36.8%.
